Test results as given in patent publication US20200163984A1, “USE OF ISOVALERYL SPIRAMYCIN I, II AND/OR III IN MANUFACTURING MEDICAMENT FOR TREATING AND/OR PREVENTING TUMOR, AND MEDICAMENT” (SHENYANG FUYANG PHARMACEUTICAL TECHNOLOGY CO., LTD., priority 2017, published 2020).

Legend:
[1] = tested on: transplanted tumor of human breast cancer cell MCF-7; test: MCF-7 transplanted tumor in nude mice
Experimental: (§1) Then cell concentration was adjusted to 1×10^7/ml with matrigel, then each nude mouse was inoculated subcutaneously with 0.2 ml of cells at its right armpit and recorded as the first day of inoculation. When the tumor grows to be greater than or equal to 100 mm^3, the mice were randomly divided into 11 groups with 6 mice in each group: a model group, a cyclophosphamide group, isovaleryl spiramycin I groups with doses of 25, 50 and 100 mg/kg, isovaleryl spiramycin II groups with doses of 25, 50 and 100 mg/kg, and isovaleryl spiramycin III groups with doses of 25, 50 and 100 mg/kg. Each group was continuously administered intragastrically for 30 days with a dose of 20 ml/kg. The mice were sacrificed the next day after drug withdrawal and the indicators were tested. The long diameter and short diameter of the tumor, and the body weight of each mouse were recorded every 3 days from drug administration to nude mouse sacrifice.
(§2) The body weight of the nude mice and the long diameter (a) and short diameter (b) of the transplanted tumor were measured every 3 days, and the tumor volume (v), relative tumor volume (RTV) and relative tumor proliferation rate (T/C) are calculated respectively according to the following formulas, wherein V=a×b^2/2; RTV=V/V0 (V0 is the tumor volume before administration, V is the tumor volume before sacrifice), and T/C (%)=treatment group RTV/model control group RTV×100%.
(§3) Each mouse was weighed and sacrificed. After the tumor was completely stripped off from the body of the mouse, the non-tumor tissues such as blood stains and fat were removed to weigh the tumor and calculate the tumor growth inhibition rate. The average tumor weight of each group of mice is used as an indicator of efficacy. Tumor growth inhibition rate (%)=(1−the average tumor weight of the treatment group/the average tumor weight of the model group)×100%.

[2] = tested on: transplanted tumor of human glioma cell U251; test: U251 transplanted tumor in nude mice
Experimental: as §1, with “U251 cells in a logarithmic growth phase were taken and subjected to a trypan blue exclusion experiment showing that the cell viability was more than 95%, then the cells were subjected to trypsinization, centrifugation, and supernatant removal. Then” for “Then”
as §2, §3

[3] = tested on: transplanted tumor of human bladder cancer cell T-24; test: T-24 transplanted tumor in nude mice
Experimental: as §1, with “group:” for “group: a model group, a cyclophosphamide group,”
as §2, §3

[4] = MCF-7, 25 mg/kg (low dose) i.g. 30 days
[5] = MCF-7, 50 mg/kg (medium dose) i.g. 30 days
[6] = MCF-7, 100 mg/kg (high dose) i.g. 30 days
[7] = U251, high dose (100 mg/kg in method) i.g. 30 days
[8] = U251, low dose (25 mg/kg in method) i.g. 30 days
[9] = U251, medium dose (50 mg/kg in method) i.g. 30 days
[10] = T-24, high dose (100 mg/kg in method) i.g. 30 days
[11] = T-24, low dose (25 mg/kg in method) i.g. 30 days
[12] = T-24, medium dose (50 mg/kg in method) i.g. 30 days

O=P1(N(CCCl)CCCl)NCCCO1 (stereo not shown) [Cyclophosphamide, cyclophosphamide, reference compound]
Body Weight (d 1) ([1]; MCF-7, 30 mg/kg i.g. 30 days): 22.03 ± 0.70 g | Body Weight (d 30) ([1]; MCF-7, 30 mg/kg i.g. 30 days): 17.77 ± 0.65 g | Inhibition Rate (tumor growth inhibition rate) ([1]; MCF-7, 30 mg/kg i.g. 30 days): 70.18% | Relative Tumor Proliferation Rate (T/C) ([1]; MCF-7, 30 mg/kg i.g. 30 days): 29.56% | Relative Tumor Volume (RTV) ([1]; MCF-7, 30 mg/kg i.g. 30 days): 5.17 ± 0.64 | Tumor Volume (d 1) ([1]; MCF-7, 30 mg/kg i.g. 30 days): 103.78 ± 12.65 mm3 | Tumor Volume (d 30) ([1]; MCF-7, 30 mg/kg i.g. 30 days): 532.62 ± 56.27 mm3 | Tumor Weight ([1]; MCF-7, 30 mg/kg i.g. 30 days): 0.81 ± 0.25*8 g | Inhibition Rate (%) ([2]; U251 nude mice, 30 mg/kg): 69.31% | Relative Tumor Proliferation Rate (T/C) ([2]; U251 nude mice, 30 mg/kg): 62.92% | Relative Tumor Volume (RTV) ([2]; U251 nude mice, 30 mg/kg): 4.23 ± 0.95 | Tumor Weight ([2]; U251 nude mice, 30 mg/kg): 0.42 ± 0.06 g | Body Weight (g) (d1) ([2]; U251 nude mice, 30 mg/kg, d1): 20.72 ± 0.48 g | Tumor Volume (mm3) (d 1) ([2]; U251 nude mice, 30 mg/kg, d1): 119.00 ± 11.13 mm3 | Body Weight (g) (d30) ([2]; U251 nude mice, 30 mg/kg, d30): 19.40 ± 1.40 g | Tumor Volume (mm3) (d30) ([2]; U251 nude mice, 30 mg/kg, d30): 504.56 ± 93.91 mm3 | Inhibition Rate (%) ([3]; dose 30 mg/kg): 73.04% | Relative Tumor Proliferation Rate (T/C) ([3]; dose 30 mg/kg): 21.60% | Relative Tumor Volume (RTV) ([3]; dose 30 mg/kg): 2.85 ± 0.50 | Tumor Weight ([3]; dose 30 mg/kg): 0.51 ± 0.12 g | Body Weight (g) (d1) ([3]; dose 30 mg/kg, d 1): 19.53 ± 0.61 g | Tumor Volume (mm3) (d 1) ([3]; dose 30 mg/kg, d 1): 136.87 ± 19.82 mm3 | Body Weight (g) (d30) ([3]; dose 30 mg/kg, d 30): 27.28 ± 1.43 g | Tumor Volume (mm3) (d30) ([3]; dose 30 mg/kg, d 30): 389.34 ± 82.07 mm3

COC1C(OC(C)=O)CC(=O)OC(C)CC=CC=CC(OC2CCC(N(C)C)C(C)O2)C(C)CC(CC=O)C1OC1OC(C)C(OC2CC(C)(O)C(OC(=O)CC(C)C)C(C)O2)C(N(C)C)C1O (stereo not shown) [Isovaleryl spiramycin II, isovaleryl spiramycin II]
Inhibition Rate (tumor growth inhibition rate) [1, 4]: 20.55% | Relative Tumor Proliferation Rate (T/C) [1, 4]: 79.23% | Relative Tumor Volume (RTV) [1, 4]: 13.87 ± 1.53 | Tumor Volume (d 1) [1, 4]: 104.64 ± 10.69 mm3 | Tumor Volume (d 30) [1, 4]: 1450.36 ± 218.20 mm3 | Tumor Weight [1, 4]: 2.16 ± 0.51 g | Inhibition Rate (tumor growth inhibition rate) [1, 5]: 41.72% | Relative Tumor Proliferation Rate (T/C) [1, 5]: 60.58% | Relative Tumor Volume (RTV) [1, 5]: 10.60 ± 1.10 | Tumor Volume (d 1) [1, 5]: 105.81 ± 11.20 mm3 | Tumor Volume (d 30) [1, 5]: 1113.42 ± 71.14 mm3 | Tumor Weight [1, 5]: 1.58 ± 0.51 g | Inhibition Rate (tumor growth inhibition rate) [1, 6]: 56.81% | Relative Tumor Proliferation Rate (T/C) [1, 6]: 44.45% | Relative Tumor Volume (RTV) [1, 6]: 7.78 ± 1.71 | Tumor Volume (d 1) [1, 6]: 119.69 ± 14.63 mm3 | Tumor Volume (d 30) [1, 6]: 914.69 ± 130.26 mm3 | Tumor Weight [1, 6]: 1.17 ± 0.47 g | Relative Tumor Proliferation Rate (T/C) ([1]; MCF-7, 100 mg/kg (high dose) i.g. 30 days, listed as isovaleryl spiramycin II): 44.44% | tumor volume and relative tumor volume compared with the model group ([1]; MCF-7, low, medium and high doses, P<0.05): significantly lower | mouse weight compared with the model group ([1]; mouse, in vivo): no significant changes | Relative Tumor Proliferation Rate (T/C) [2, 7]: 43.26% | tumor growth inhibition rate [2, 7]: 40.26% | Relative Tumor Proliferation Rate (T/C) [2, 8]: 76.14% | tumor growth inhibition rate [2, 8]: 10.91% | tumor volume and relative tumor volume compared with the model group ([2]; U251, low, medium and high doses, P<0.05): significantly lower | Relative Tumor Proliferation Rate (T/C) [2, 9]: 51.88% | tumor growth inhibition rate [2, 9]: 15.81% | Inhibition Rate (%) ([2]; U251 nude mice, 25 mg/kg): 10.91% | Relative Tumor Proliferation Rate (T/C) ([2]; U251 nude mice, 25 mg/kg): 76.14% | Relative Tumor Volume (RTV) ([2]; U251 nude mice, 25 mg/kg): 14.73 ± 1.33 | Tumor Weight ([2]; U251 nude mice, 25 mg/kg): 1.23 ± 0.12 g | Tumor Volume (mm3) (d 1) ([2]; U251 nude mice, 25 mg/kg, d1): 125.90 ± 11.45 mm3 | Tumor Volume (mm3) (d30) ([2]; U251 nude mice, 25 mg/kg, d30): 1596.45 ± 267.65 mm3 | Inhibition Rate (%) ([2]; U251 nude mice, 50 mg/kg): 15.81% | Relative Tumor Proliferation Rate (T/C) ([2]; U251 nude mice, 50 mg/kg): 51.88% | Relative Tumor Volume (RTV) ([2]; U251 nude mice, 50 mg/kg): 14.31 ± 0.98 | Tumor Weight ([2]; U251 nude mice, 50 mg/kg): 1.16 ± 0.10 g | Tumor Volume (mm3) (d 1) ([2]; U251 nude mice, 50 mg/kg, d1): 118.33 ± 11.65 mm3 | Tumor Volume (mm3) (d30) ([2]; U251 nude mice, 50 mg/kg, d30): 1030.10 ± 207.19 mm3 | Inhibition Rate (%) ([2]; U251 nude mice, 100 mg/kg): 40.26% | Relative Tumor Proliferation Rate (T/C) ([2]; U251 nude mice, 100 mg/kg): 43.26% | Relative Tumor Volume (RTV) ([2]; U251 nude mice, 100 mg/kg): 12.88 ± 1.54 | Tumor Weight ([2]; U251 nude mice, 100 mg/kg): 0.83 ± 0.12 g | Tumor Volume (mm3) (d 1) ([2]; U251 nude mice, 100 mg/kg, d1): 122.74 ± 10.75 mm3 | Tumor Volume (mm3) (d30) ([2]; U251 nude mice, 100 mg/kg, d30): 890.78 ± 225.34 mm3 | mouse weight compared with the model group ([2]; mouse, in vivo): no significant changes | Body Weight (g) (d1) ([2]; mouse, in vivo, 25 mg/kg): 20.77 ± 0.65 g | Body Weight (g) (d30) ([2]; mouse, in vivo, 25 mg/kg): 20.85 ± 0.79 g | Body Weight (g) (d1) ([2]; mouse, in vivo, 50 mg/kg): 21.25 ± 0.46 g | Body Weight (g) (d30) ([2]; mouse, in vivo, 50 mg/kg): 20.86 ± 0.43 g | Body Weight (g) (d1) ([2]; mouse, in vivo, 100 mg/kg): 20.92 ± 0.82 g | Body Weight (g) (d30) ([2]; mouse, in vivo, 100 mg/kg): 21.47 ± 0.70 g | Relative Tumor Proliferation Rate (T/C) [3, 10]: 46.70% | tumor growth inhibition rate [3, 10]: 59.25% | Relative Tumor Proliferation Rate (T/C) [3, 11]: 81.39% | tumor growth inhibition rate [3, 11]: 15.57% | tumor volume and relative tumor volume compared with the model group ([3]; T-24, low, medium and high doses, P<0.05): significantly lower | Relative Tumor Proliferation Rate (T/C) [3, 12]: 64.89% | tumor growth inhibition rate [3, 12]: 41.99% | Inhibition Rate (%) ([3]; dose 25 mg/kg): 15.57% | Relative Tumor Proliferation Rate (T/C) ([3]; dose 25 mg/kg): 81.39% | Relative Tumor Volume (RTV) ([3]; dose 25 mg/kg): 10.75 ± 1.34 | Tumor Weight ([3]; dose 25 mg/kg): 1.58 ± 0.28 g | Tumor Volume (mm3) (d 1) ([3]; dose 25 mg/kg, d 1): 132.64 ± 19.75 mm3 | Tumor Volume (mm3) (d30) ([3]; dose 25 mg/kg, d 30): 1414.36 ± 188.91 mm3 | Inhibition Rate (%) ([3]; dose 50 mg/kg): 41.99% | Relative Tumor Proliferation Rate (T/C) ([3]; dose 50 mg/kg): 64.89% | Relative Tumor Volume (RTV) ([3]; dose 50 mg/kg): 8.57 ± 1.31 | Tumor Weight ([3]; dose 50 mg/kg): 1.09 ± 0.42 g | Tumor Volume (mm3) (d 1) ([3]; dose 50 mg/kg, d 1): 133.67 ± 5.07 mm3 | Tumor Volume (mm3) (d30) ([3]; dose 50 mg/kg, d 30): 1142.42 ± 146.91 mm3 | Inhibition Rate (%) ([3]; dose 100 mg/kg): 59.25% | Relative Tumor Proliferation Rate (T/C) ([3]; dose 100 mg/kg): 46.70% | Relative Tumor Volume (RTV) ([3]; dose 100 mg/kg): 6.17 ± 1.26 | Tumor Weight ([3]; dose 100 mg/kg): 0.76 ± 0.19 g | Tumor Volume (mm3) (d 1) ([3]; dose 100 mg/kg, d 1): 133.57 ± 18.08 mm3 | Tumor Volume (mm3) (d30) ([3]; dose 100 mg/kg, d 30): 809.94 ± 131.43 mm3 | mouse weight compared with the model group ([3]; mouse, in vivo): no significant changes | Body Weight (g) (d1) ([3]; mouse, in vivo, 25 mg/kg): 19.91 ± 0.28 g | Body Weight (g) (d30) ([3]; mouse, in vivo, 25 mg/kg): 24.81 ± 2.42 g | Body Weight (g) (d1) ([3]; mouse, in vivo, 50 mg/kg): 19.74 ± 0.82 g | Body Weight (g) (d30) ([3]; mouse, in vivo, 50 mg/kg): 25.84 ± 0.73 g | Body Weight (g) (d1) ([3]; mouse, in vivo, 100 mg/kg): 19.51 ± 0.50 g | Body Weight (g) (d30) ([3]; mouse, in vivo, 100 mg/kg): 25.92 ± 1.35 g
